# Where two headings read alike, the source gives them in different places.
# Columns and labels:
# IGF-1R = target: T1, IGF-1R (Homo sapiens, UniProt P08069); experiment: In vitro IGF-1R enzymatic assay (ADP-Glo kinase assay); assay type: biochemical; settings: activated IGF-1R, 30 nM, average; for inhibition at 0.03 µM: read-out: % Inh @ 30 nM Avg
# T1 construct: purchased Millipore 14-802
# Procedure: (§1) IC50 values of the compounds of the invention against IGF-1R and IR were measured in vitro using an ADP-Glo kinase assay Kit (Promega). […] Kinase reactions in both assays were conducted at 30° C. for 20 min with increasing concentrations of compounds of the invention.
# Additional compounds of the invention were screened against activated IGF-1R.
# [1] = tested on: Akt phosphorylation induced by IGF-1R; experiment: Western blot analysis of Akt phosphorylation induced by IGF-1 in HT-29 cells; assay type: cell-based, Human; settings: for Levels of phosphorylated AKT in treated cells (pAKT/actin): HT-29 cells, IGF-1; for p-AKT relative to levels with 0.1 nM compound: Table B2 lower part; for Normalized phosphorylated AKT (relative to actin) levels relative to 0.1 nM compound treatment: Table B2 upper part
# Procedure: Inhibition of Akt phosphorylation induced by IGF-1R was studied by western blot analysis. Human colon carcinoma HT-29 cells were seeded at a density of 8×10^4 cells/well in a 24-well plate and grown in DME/F12 media containing 10% FBS for 24 h. The cells were then depleted of serum by incubation in DME/F12 media lacking FBS for 24 h. […] […] Lysed cells were centrifuged at 13,000 rpm for 15 min and the protein concentration soluble fraction (supernatant) of each sample was determined using a BCA protein assay (Pierce).
# IR = target: T2, IR (Homo sapiens, UniProt P06213); experiment: In vitro IR enzymatic assay (ADP-Glo kinase assay); assay type: biochemical; settings: activated IR, 30 nM; for % Inh @ 30 nM (N1) / % Inh @ 30 nM (N2): 0.03 µM
# T2 construct: purchased Millipore 14-803
# T2 sequence (P06213 28-1382): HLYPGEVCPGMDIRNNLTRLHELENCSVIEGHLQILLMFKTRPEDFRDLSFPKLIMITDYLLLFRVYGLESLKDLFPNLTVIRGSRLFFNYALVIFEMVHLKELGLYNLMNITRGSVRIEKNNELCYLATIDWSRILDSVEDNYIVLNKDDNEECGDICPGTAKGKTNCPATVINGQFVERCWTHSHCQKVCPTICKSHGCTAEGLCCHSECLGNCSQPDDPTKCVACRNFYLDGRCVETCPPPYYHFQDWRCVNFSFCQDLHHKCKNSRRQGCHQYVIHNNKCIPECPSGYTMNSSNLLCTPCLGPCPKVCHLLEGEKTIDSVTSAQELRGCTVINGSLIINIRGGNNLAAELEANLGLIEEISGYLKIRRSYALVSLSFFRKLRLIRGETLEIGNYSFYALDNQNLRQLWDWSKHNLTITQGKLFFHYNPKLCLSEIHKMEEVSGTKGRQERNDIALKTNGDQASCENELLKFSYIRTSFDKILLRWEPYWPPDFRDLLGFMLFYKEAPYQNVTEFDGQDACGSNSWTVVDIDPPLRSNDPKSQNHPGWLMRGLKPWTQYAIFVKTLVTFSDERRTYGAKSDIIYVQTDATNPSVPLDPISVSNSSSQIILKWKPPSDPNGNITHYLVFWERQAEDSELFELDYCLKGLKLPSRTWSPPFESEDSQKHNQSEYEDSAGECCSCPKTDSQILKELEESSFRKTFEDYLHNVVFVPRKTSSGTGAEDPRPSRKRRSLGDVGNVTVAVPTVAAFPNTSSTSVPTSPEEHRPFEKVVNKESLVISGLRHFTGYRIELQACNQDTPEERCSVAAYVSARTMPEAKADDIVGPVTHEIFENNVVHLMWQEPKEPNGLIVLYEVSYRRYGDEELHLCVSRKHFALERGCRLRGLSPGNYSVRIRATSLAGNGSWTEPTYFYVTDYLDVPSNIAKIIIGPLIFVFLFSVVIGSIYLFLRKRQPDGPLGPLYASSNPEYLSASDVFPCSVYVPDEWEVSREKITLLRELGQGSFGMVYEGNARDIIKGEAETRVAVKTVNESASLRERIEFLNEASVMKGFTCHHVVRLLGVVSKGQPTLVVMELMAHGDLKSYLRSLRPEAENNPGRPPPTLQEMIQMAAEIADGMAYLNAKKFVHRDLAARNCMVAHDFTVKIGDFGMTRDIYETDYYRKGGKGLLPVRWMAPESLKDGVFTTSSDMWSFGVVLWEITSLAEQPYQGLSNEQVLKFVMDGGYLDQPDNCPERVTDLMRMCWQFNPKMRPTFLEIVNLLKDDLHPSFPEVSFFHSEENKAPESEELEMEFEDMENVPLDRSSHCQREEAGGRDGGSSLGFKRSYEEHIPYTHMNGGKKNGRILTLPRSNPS
# Procedure: as §1
# Additional compounds of the invention were screened against activated IR.
# T1 sequence (P08069 31-1367): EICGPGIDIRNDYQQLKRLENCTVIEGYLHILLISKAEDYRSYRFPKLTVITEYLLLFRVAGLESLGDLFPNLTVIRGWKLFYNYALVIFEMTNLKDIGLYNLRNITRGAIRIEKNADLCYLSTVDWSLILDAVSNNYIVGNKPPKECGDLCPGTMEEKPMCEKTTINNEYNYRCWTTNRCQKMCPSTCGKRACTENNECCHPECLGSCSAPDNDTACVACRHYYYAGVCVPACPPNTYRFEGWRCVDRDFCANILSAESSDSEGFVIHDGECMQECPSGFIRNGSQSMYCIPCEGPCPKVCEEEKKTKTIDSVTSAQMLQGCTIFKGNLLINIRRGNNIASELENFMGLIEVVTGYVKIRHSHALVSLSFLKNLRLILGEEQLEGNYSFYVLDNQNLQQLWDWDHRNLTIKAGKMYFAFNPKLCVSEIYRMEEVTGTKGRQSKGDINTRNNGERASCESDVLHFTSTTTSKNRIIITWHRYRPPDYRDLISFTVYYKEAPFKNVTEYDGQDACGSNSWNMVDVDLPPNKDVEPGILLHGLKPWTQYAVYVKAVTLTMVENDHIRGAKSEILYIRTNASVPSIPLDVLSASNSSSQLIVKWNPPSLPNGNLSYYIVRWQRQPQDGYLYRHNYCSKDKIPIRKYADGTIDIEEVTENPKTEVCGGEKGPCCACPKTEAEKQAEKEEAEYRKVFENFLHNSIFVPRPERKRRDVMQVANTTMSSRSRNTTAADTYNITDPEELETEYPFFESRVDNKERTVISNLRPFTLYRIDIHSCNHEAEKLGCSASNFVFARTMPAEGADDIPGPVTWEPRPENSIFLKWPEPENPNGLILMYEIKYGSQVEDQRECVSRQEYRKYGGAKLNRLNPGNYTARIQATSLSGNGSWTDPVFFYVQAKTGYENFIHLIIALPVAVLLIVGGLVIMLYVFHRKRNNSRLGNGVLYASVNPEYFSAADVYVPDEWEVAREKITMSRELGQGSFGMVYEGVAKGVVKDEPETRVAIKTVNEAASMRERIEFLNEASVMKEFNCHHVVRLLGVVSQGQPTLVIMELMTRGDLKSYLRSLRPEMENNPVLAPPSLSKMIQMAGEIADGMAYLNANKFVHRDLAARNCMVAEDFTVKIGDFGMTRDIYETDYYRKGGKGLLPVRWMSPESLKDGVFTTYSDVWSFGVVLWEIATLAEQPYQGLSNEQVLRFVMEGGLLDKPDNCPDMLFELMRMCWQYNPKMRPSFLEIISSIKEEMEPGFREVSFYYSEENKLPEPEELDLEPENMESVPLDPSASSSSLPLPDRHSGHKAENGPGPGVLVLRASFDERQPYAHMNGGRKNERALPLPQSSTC
Structure (SMILES),% Inh @ 30 nM Avg (IGF-1R) [%],% Inh @ 30 nM (N1) (IR; N1) [%],% Inh @ 30 nM (N2) (IR; N2) [%],% Inh @ 30 nM Avg (IR; average) [%],"inhibition at 0.03 µM (IR; N1, read-out: % Inh @ 30 nM (N1)) [%]","inhibition at 0.03 µM (IR; N2, read-out: % Inh @ 30 nM (N2)) [%]","inhibition at 0.03 µM (IR; average, read-out: % Inh @ 30 nM Avg) [%]",inhibition at 0.03 µM (IGF-1R) [%],Levels of phosphorylated AKT in treated cells (pAKT/actin) ([1]; 0.1 nM compound),p-AKT relative to levels with 0.1 nM compound ([1]; 0.1 nM),Normalized phosphorylated AKT (relative to actin) levels relative to 0.1 nM compound treatment ([1]; 0.1 nM),Levels of phosphorylated AKT in treated cells (pAKT/actin) ([1]; 1 nM compound),p-AKT relative to levels with 0.1 nM compound ([1]; 1 nM),Normalized phosphorylated AKT (relative to actin) levels relative to 0.1 nM compound treatment ([1]; 1 nM),Levels of phosphorylated AKT in treated cells (pAKT/actin) ([1]; 10 nM compound),p-AKT relative to levels with 0.1 nM compound ([1]; 10 nM),Normalized phosphorylated AKT (relative to actin) levels relative to 0.1 nM compound treatment ([1]; 10 nM),Levels of phosphorylated AKT in treated cells (pAKT/actin) ([1]; 100 nM compound),p-AKT relative to levels with 0.1 nM compound ([1]; 100 nM),Normalized phosphorylated AKT (relative to actin) levels relative to 0.1 nM compound treatment ([1]; 100 nM)
"O=C(Nc1ccc(F)nc1)C1CC(O)CN1c1nc2c(c(Nc3cc(C4CC4)[nH]n3)n1)CCC2 (racemic) [Compound 10c, 1-(4-(5-cyclopropyl-1H-pyrazol-3-ylamino)-6,7-dihydro-5H-cyclopenta[d]pyrimidin-2-yl)-N-(6-fluoropyridin-3-yl)-4-hydroxypyrrolidine-2-carboxamide]",15,–,–,–,–,–,–,–,–,–,–,–,–,–,–,–,–,–,–,–
"CC(C)c1cc(Nc2nc(N3CCC[C@@H]3C(=O)Nc3ccc(F)nc3)nc3c2CCC3)on1 (single isomer, unassigned) [Compound 12a]",–,–,–,–,10,8,9,–,4.17,1.0,1.0,3.33,0.8,0.8,2.91,0.7,0.7,4.16,1.0,1.0
"O=C(Nc1ccc(F)nc1)C1CCCN1c1nc2c(c(Nc3cc(C4CC4)[nH]n3)n1)CCCC2 (single isomer, unassigned) [Compound 14a, 1-(4-(5-cyclopropyl-1H-pyrazol-3-ylamino)-5,6,7,8-tetrahydroquinazolin-2-yl)-N-(6-fluoropyridin-3-yl)pyrrolidine-2-carboxamide]",–,–,–,–,–,–,–,–,0.73,1.0,1.0,0.51,0.7,0.7,0.43,0.6,0.6,0.35,0.5,0.5
"O=C(Nc1ccc(F)nc1)C1CCCN1c1nc2c(c(Nc3cc(C4CC4)[nH]n3)n1)CCCC2 (single isomer, unassigned) [Compound 14b, 1-(4-(5-cyclopropyl-1H-pyrazol-3-ylamino)-5,6,7,8-tetrahydroquinazolin-2-yl)-N-(6-fluoropyridin-3-yl)pyrrolidine-2-carboxamide]",–,–,–,–,–,–,–,–,0.51,1.0,1.0,0.49,0.9,0.9,0.02,0.0,0.0,0.00,0.0,0.0
"O=C(Nc1ccc(F)nc1)C1CCCCN1c1nc2c(c(Nc3cc(C4CCCC4)[nH]n3)n1)CCC2 (single isomer, unassigned) [Compound 17a, 1-(4-(5-cyclopentyl-1H-pyrazol-3-ylamino)-6,7-dihydro-5H-cyclopenta[d]pyrimidin-2-yl)-N-(6-fluoropyridin-3-yl)piperidine-2-carboxamide]",–,–,–,–,–,–,–,–,0.89,1.0,1.0,1.22,1.4,1.4,1.01,1.1,1.1,1.08,1.2,1.2
"COC1CC(C(=O)Nc2ccc(F)nc2)N(c2nc3c(c(Nc4cc(C5CC5)[nH]n4)n2)CCC3)C1 (single isomer, unassigned) [Compound 21a, 1-(4-(5-cyclopropyl-1H-pyrazol-3-ylamino)-6,7-dihydro-5H-cyclopenta[d]pyrimidin-2-yl)-N-(6-fluoropyridin-3-yl)-4-methoxypyrrolidine-2-carboxamide]",–,–,–,–,–,–,–,14,–,–,–,–,–,–,–,–,–,–,–,–
"COC1CC(C(=O)Nc2ccc(F)nc2)N(c2nc3c(c(Nc4cc(C5CC5)[nH]n4)n2)CCC3)C1 (single isomer, unassigned) [Compound 21b, 1-(4-(5-cyclopropyl-1H-pyrazol-3-ylamino)-6,7-dihydro-5H-cyclopenta[d]pyrimidin-2-yl)-N-(6-fluoropyridin-3-yl)-4-methoxypyrrolidine-2-carboxamide]",–,–,–,–,–,–,–,41,–,–,–,–,–,–,–,–,–,–,–,–
"CC1(O)CC(c2nc(-c3ccc4ccc(-c5ccccc5)nc4c3)c3c(N)nccn23)C1 (centres unmarked) [OSI-906, 3-[8-Amino-1-(2-phenyl-7-quinolyl)imidazo[1,5-a]pyrazin-3-yl]-1-methyl-cyclobutanol, reference compound]",–,–,–,–,–,–,–,–,1.06,–,–,0.85,–,–,1.58,–,–,0.40,–,–

# More lines, main results first:
% Inh @ 30 nM Avg (IGF-1R) [%],% Inh @ 30 nM (N1) (IR; N1) [%],% Inh @ 30 nM (N2) (IR; N2) [%],% Inh @ 30 nM Avg (IR; average) [%],"inhibition at 0.03 µM (IR; N1, read-out: % Inh @ 30 nM (N1)) [%]","inhibition at 0.03 µM (IR; N2, read-out: % Inh @ 30 nM (N2)) [%]","inhibition at 0.03 µM (IR; average, read-out: % Inh @ 30 nM Avg) [%]",inhibition at 0.03 µM (IGF-1R) [%],Structure (SMILES),Levels of phosphorylated AKT in treated cells (pAKT/actin) ([1]; 0.1 nM compound),p-AKT relative to levels with 0.1 nM compound ([1]; 0.1 nM),Normalized phosphorylated AKT (relative to actin) levels relative to 0.1 nM compound treatment ([1]; 0.1 nM),Levels of phosphorylated AKT in treated cells (pAKT/actin) ([1]; 1 nM compound),p-AKT relative to levels with 0.1 nM compound ([1]; 1 nM),Normalized phosphorylated AKT (relative to actin) levels relative to 0.1 nM compound treatment ([1]; 1 nM),Levels of phosphorylated AKT in treated cells (pAKT/actin) ([1]; 10 nM compound),p-AKT relative to levels with 0.1 nM compound ([1]; 10 nM),Normalized phosphorylated AKT (relative to actin) levels relative to 0.1 nM compound treatment ([1]; 10 nM),Levels of phosphorylated AKT in treated cells (pAKT/actin) ([1]; 100 nM compound),p-AKT relative to levels with 0.1 nM compound ([1]; 100 nM),Normalized phosphorylated AKT (relative to actin) levels relative to 0.1 nM compound treatment ([1]; 100 nM)
−11,–,–,–,–,–,–,–,"O=C(Nc1ccc(F)nc1)C1CC(O)CN1c1nc2c(c(Nc3cc(C4CC4)[nH]n3)n1)CCC2 (racemic) [Compound 10b, 1-(4-(5-cyclopropyl-1H-pyrazol-3-ylamino)-6,7-dihydro-5H-cyclopenta[d]pyrimidin-2-yl)-N-(6-fluoropyridin-3-yl)-4-hydroxypyrrolidine-2-carboxamide]",2.21,1.0,1.0,2.75,1.2,1.2,1.71,0.8,0.8,1.66,0.8,0.8
–,−17,−9,−13,–,–,–,–,"O=C(Nc1ccc(F)nc1)[C@H]1[C@@H](O)CCN1c1nc2c(c(Nc3cc(C4CC4)[nH]n3)n1)CCC2 (single isomer, unassigned) [Compound 11a]",1.83,1.0,1.0,1.55,0.8,0.8,1.43,0.8,0.8,1.58,0.9,0.9
–,−2,4,1,–,–,–,–,"O=C(Nc1ccc(F)nc1)C1CCCN1c1nc2c(c(Nc3cc(C4CCCC4)[nH]n3)n1)CCCC2 (single isomer, unassigned) [Compound 15a, 1-(4-(5-cyclopentyl-1H-pyrazol-3-ylamino)-5,6,7,8-tetrahydroquinazolin-2-yl)-N-(6-fluoropyridin-3-yl)pyrrolidine-2-carboxamide]",0.70,1.0,1.0,0.89,1.3,1.3,0.92,1.3,1.3,0.59,0.8,0.8

# From patent US9499519B2, “Fused pyrimidine compounds and use thereof” (Medivation Technologies, Inc., priority 2012, dated 2016)
